Assay [1] concerns Mewo. The assay is described as follows: Proliferation inhibition, CellTiter-Glo. Type of assay: cell-based, human. To be noted: Table D-2, 3 days, read-out: Mewo Prolif. EC50. How it is done: All cancer cell lines (A375, A101D, A2058, RKO, HT29 SK-MEL 30, IPC298, HepG2, HCT-116, Lovo, SW620, SW480, NCI-H358, NCI-H2122, Calu-6, NCIH2087, NCIH1755, NCIH1666 and Mewo) were obtained from ATCC and cultured in RPMI-1640 medium (Gibco) supplemented with 5% heat inactivated fetal bovine serum (FBS, Wisent) at 37° C. under 5% CO2. Cells were maintained in T175 flasks (Greiner). They were passaged by removing the culture medium, washing once in 10 mL of room temperature Phosphate Buffered Saline (PBS; Wisent) and incubating at 37° C. with 2 mL of 0.05% Trypsin (Thermo-Fisher). Trypsin was then inactivated by adding complete growth medium and the cells were then replated in a T175 culture dish at the appropriate dilution. All cell lines were routinely tested for mycoplasma contamination. Tissue type and mutational status of each cell line can be found in Table B.
CellTiter-Glo® viability analysis was conducted on cells plated in […] of complete RPMI-1640 growth medium in 96-well flat-bottomed white opaque plates (Greiner or Corning) at a density indicated in Table E (for each CCL, number of cells plated per well of a 96-well plate to perform the CellTiter-Glo® cell viability assay). The cell density in cells/cm^2 would correspond to cell number divided by the area of one well of a 96-well plate (0.32 cm^2). Cells were maintained overnight at 37° C. under 5% CO2 before treatment with compounds' dilution series for 3 days.
In a dilution series 100 μL/well of test substance dilution prepared in complete RPMI-1640 growth media was added to the cells plated initially in 100 μL of growth media. The dilution series is selected so that ten concentrations cover a range from 30 μM or 10 μM to […]. If necessary (as in the case of A375 cells, which were more sensitive to the compounds) the initial concentration of 10 μM is lowered to 1 μM and further dilution is carried out accordingly. The final concentration of DMSO in the assay is set to 0.5%.
After 3 days of incubation, the growth media were removed by aspiration and 60 μL of diluted CellTiter-Glo® reagent (10 μL CellTiter-Glo® reagent+50 μL of PBS) was added to each well. Cells were allowed to lyse and to equilibrate in CellTiter-Glo® reagent by 5 min incubation on a plate shaker followed by 10 min incubation at room temperature. Luminescence signals were then acquired on a Synergy Neo2 plate reader (Biotek).
The effect of each compound dilution on the proliferation of cancer cell lines was expressed in % inhibition and calculated as follows. An internal 100% inhibition control (1 μM of trametinib; cat. No. HY-10999; MedChem Express; CAS No. 871700-17-3) was included in each plate and used as a measure of CellTiter-Glo® signal background. The value obtained for trametinib was subtracted from each data point. The average of DMSO (vehicle) controls (set as 0% inhibition) was established and used to calculate % inhibition:
The ability of each compound to inhibit proliferation was expressed as a EC50 value obtained by plotting the effect values for each data point of a dilution series and fitting the obtained curves using a log(agonist) versus response−variable slope (four parameters) function using GraphPadPrism (V7.0) or Dotmatics Screening Ultra platform.
(ATP-based viability assays read luminescence as a measure of living cells.)

Assay [2] deals with T1, ARAF (Homo sapiens, UniProt P10398).
T1 sequence (P10398 310-570 limits assumed): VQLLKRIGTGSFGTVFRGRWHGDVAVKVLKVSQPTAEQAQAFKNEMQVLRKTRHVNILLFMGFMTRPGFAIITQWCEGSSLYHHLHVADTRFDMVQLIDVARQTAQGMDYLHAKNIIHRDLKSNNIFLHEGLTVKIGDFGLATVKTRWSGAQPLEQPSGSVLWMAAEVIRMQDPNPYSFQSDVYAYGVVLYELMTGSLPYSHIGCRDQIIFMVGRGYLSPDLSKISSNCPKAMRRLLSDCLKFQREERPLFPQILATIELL
Briefly: ARAF kinase activity assay (AlphaLISA p-MEK detection). Type of assay: biochemical. The conditions noted are these: Table A. As to the method:
Compound preparation: solid samples of each substances in 1dram vials were suspended in DMSO (Fisher Scientific) at a stock concentration of 20 mM. Stocks were kept at −20° C. and protected from light. If solubility of the compound at 20 mM appeared to be an issue, the initial concentration of the DMSO stock was changed to 10 mM or 5 mM.
In vitro enzymatic reactions were used for evaluating compounds intrinsic activity against BRAF, CRAF and ARAF. For BRAF and CRAF, 0.375 nM of purified GST-tagged kinases (cat #B4062-10UG and cat #R1656-10UG respectively from Millipore Sigma) were incubated with 75 nM of kinase-dead MEK1 substrate (cat #40075; BPS Bioscience) in the presence of 10 μM of Ultrapure ATP (cat #V9102; Promega; part V915A) with and without the test compound in a buffer containing 50 mM HEPES pH 7.5, 10 mM MgCl2, 1 mM EDTA, 0.01% Brij-35 and 2 mM DTT. Separate reactions were performed with the MEK1 substrate and ATP as a blank control. ARAF, kinase reactions were rigorously the same with the exception that kinase concentration was raised to 3.75 nM (cat #1768-0000-1; Reaction Biology).
For compound treatment, 5 μL/well of test substance solution are placed in a 384-well proxyplate (Perkin Elmer) and mixed with 2× concentrated kinase reactions. The dilution series is selected so that nine concentrations cover a range from 100 nM to 0.01 nM. […] The final concentration of DMSO in the assay is set at 0.05%.
ARAF kinase reactions were carried out for a total of 2 hours at 30° C. and then stopped by addition of EDTA at a final concentration of 40 mM. Reactions were then detected using the AlphaLISA® SureFire® Ultra™ p-MEK ½ (Ser218/222) (PerkinElmer) kit. Reactions were performed with 5 μL of kinase reaction according to the manufacturer's specifications in 384-well proxyplates (Perkin Elmer) followed by overnight incubation of the reactions at room temperature in a humidified chamber. After completion of the detection reactions, the signals were recorded on a Synergy Neo2 plate reader (Biotek) equipped with AlphaLISA® filters. The effect of each compound dilution on the pMEK signal generated by ARAF reactions was expressed in % inhibition and calculated as follows. An internal 100% inhibition control (average of luminescence in kinase reactions comprising kinase dead MEK1 substrate alone) was included in each plate to measure of pMEK background and was subtracted from each data point. The average of DMSO (vehicle) controls (set as 0% inhibition) was also established and used to calculate % inhibition:
IC50 values were obtained by plotting the kinase inhibition values and fitting the dose-activity curves using a log(agonist) versus response−variable slope (four parameters) function using either GraphPadPrism (V7.0) or Dotmatics Screening Ultra platform. Standards included in the ARAF kinase assay were Belvarafenib (MedChem Express cat #HY-109080; CAS #1446113-23-0), LXH254 (MedChem Express cat #HY-112089; CAS #1800398-38-2) and BGB283 (cat #HY-18957; CAS #1446090-79-4).
In general terms: Alpha assays give light when donor and acceptor beads are brought close together.

Among the data in patent publication US20240239801A1, “PYRIMIDO[5,4,D]PYRIMIDINE COMPOUNDS, COMPOSITIONS COMPRISING THEM AND USES THEREOF” (Université de Montréal, priority 2021, published 2024) are EC50 and IC50 values, retold here.

Read-outs that look alike come from different tables or passages of the source. Some results are limits rather than exact numbers.

What is called EC50 is the midpoint of the concentration-response curve. The IC50 is the concentration needed to halve the response being measured. For `Cc1c(F)cccc1S(=O)(=O)Nc1ccc(F)c(Nc2ncnc3cnc(-n4cnc5c(-c6cccnc6)cccc54)nc23)c1F` [Example 114], the 50% effective concentration (EC50) in assay [1] (Homo sapiens, MeWo, 72 h) was in the range of 300 to 3000 nM. Further, the IC50 in assay [2] was below 10 nM.

Regarding `COc1ccc(S(=O)(=O)Nc2ccc(F)c(Nc3ncnc4cnc(-n5cnc6c(N)cccc65)nc34)c2F)c(C)c1Cl` [Example 112], the EC50 in assay [1] lay in the range of 300 to 3000 nM. Further, in assay [2], the half-maximal inhibitory concentration (IC50) is above 20 nM.

As for `Cc1c(F)cccc1S(=O)(=O)Nc1ccc(F)c(Nc2ncnc3cnc(-n4cc(C(=O)N(C)Cc5ccncc5)c5ccccc54)nc23)c1F` [Example 98], the EC50 in assay [1] is below 300 nM. Further, in assay [2], the IC50 is 10 to 20 nM.

Turning to `O=S(=O)(Nc1ccc(F)c(Nc2ncnc3cnc(-n4cnc5c(N6CCC7(CCCO7)CC6)cccc54)nc23)c1F)c1cccc(Cl)c1Cl` [Example 129], in assay [1], the EC50 is below 300 nM. For the same compound, the IC50 in assay [2] is 10 to 20 nM.

Turning to `Cc1ccc2c(Nc3cccc(Cl)c3F)nccc2c1NC(=O)c1csc2c(N)ncnc12` [Belvarafenib, reference compound], the EC50 in assay [1] (Homo sapiens, MeWo, 72 h) fell in the range of 300 to 3000 nM. Further, the IC50 in assay [2] was above 20 nM.
